Values quoted from earlier work, collected in publication PMC7099596 (ACS Central Science, 2020).

What was measured:
[1] = test system: MCF-7 breast cancer cell line; conditions: read-out: EC50 antiproliferative activity, MCF-7, ref NCI ID: 122750
[2] = test system: SKBr-3 breast cancer cell line; conditions: read-out: EC50 antiproliferative activity, SKBr-3, ref NCI ID: 122750

SMILES: COC1=C2C[C@@H](C)C[C@H](OC)[C@H](O)[C@@H](C)/C=C(\C)[C@H](OC(N)=O)[C@@H](OC)/C=C\C=C(/C)C(=O)NC(=CC1=O)C2=O [geldanamycin]
- EC50 [1]: 19.9 nM
- EC50 [2]: 24 nM
